The values below are quoted from earlier work in US20060246003A1, “Composition containing anti-dementia drug” (priority 2004, published 2006).

The subject of the series is patients with moderate to severe Alzheimer-type dementia. To be noted: memantine hydrochloride added in patients already administered donepezil hydrochloride, compared to placebo group.

Structures can show the parent of a compound that is named as a salt.

Regarding `CC12CC3CC(C)(C1)CC(N)(C3)C2` [memantine hydrochloride], the “cognitive ability and activities of daily living” value is listed as “improved”.
